SMILES strings stand for the structures.

This assay can be described thus: Homogeneous Time Resolved Fluorescence Assay: The sGC cellular activator assay is performed in the presence and absence of 50% human serum (HS) using Chinese hamster ovary cells that have been stably transfected to express the human soluble guanylate cyclase alpha 1 and beta 1 subunits (sGC). Cells are preincubated with 40 microM 1H-[1,2,4]oxadiazolo[4,3-a]quinoxalin-1-one (ODQ), an sGC inhibitor, for one h in buffer containing 0.1% bovine serum albumin and 3-isobutyl-1-methylxanthine (IBMX). Concentration response curves are prepared for test compounds in DMSO. An intermediate dilution of the compounds is performed in either buffer containing IBMX or type AB HS containing IBMX. Diluted compounds are added to cells and they are incubated at room temperature for thirty min. cGMP is measured using a CisBio homogeneous time resolved fluorescence kit and the EC50 is calculated for each compound.
The EC50 is the concentration that produces a half-maximal response. Consider `CO[C@@H]1CN(c2cccc(-c3cccc(C)c3OCc3ccc4c(c3C)CCN(C3CCOCC3)CC4)n2)CC[C@@H]1C(=O)O`, for which the EC50 is 6 nM.

Turning to `Cc1ccc(OCc2ccc3c(c2)CCN(C2COC2)C3)c(-c2csc(N3CC[C@@]4(C(=O)O)C[C@H]4C3)n2)c1`, the concentration giving a half-maximal response (EC50) was 73 nM. Turning to `Cc1cccc(-c2csc(N3CC[C@@]4(C(=O)O)C[C@H]4C3)n2)c1OCc1ccc2c(c1C)CCN(C1CCOCC1)C2`, the EC50 was 11 nM. As for `Cc1cccc(-c2csc(N3CC[C@@]4(C(=O)O)C[C@H]4C3)n2)c1OCc1cnc2c(c1)CCN(C1CCOCC1)C2`, the figure is 209 nM. As for `Cc1cc(COc2c(C)cccc2-c2csc(N3CC[C@@]4(C(=O)O)C[C@H]4C3)n2)cc2c1CN(C1COC1)CC2`, the figure is 2 nM; as for `Cc1cc(COc2c(C)cccc2-c2csc(N3CC[C@@]4(C(=O)O)C[C@H]4C3)n2)cc2c1CN(CC1COCCO1)CC2` (stereo partly drawn), 11 nM; as for `CO[C@@H]1CN(c2nc(-c3cc(F)cc(C)c3OCc3ccc4c(c3)[C@@H](C)CN(C3CCOCC3)CC4)cs2)CC[C@@H]1C(=O)O`, 5 nM. To `Cc1cccc(-c2csc(N3CC[C@@]4(C(=O)O)C[C@H]4C3)n2)c1OCc1ccc2c(c1C)CCN(C1COC1)CC2` belongs 6 nM. Take `Cc1cccc(-c2csc(N3CC[C@@]4(C(=O)O)C[C@H]4C3)n2)c1OCc1ccc2c(c1)CCN(C1CCOC1)CC2` (stereo partly drawn): the EC50 was 11 nM. To `CO[C@H]1CN(c2nc(-c3cc(C)ccc3OCc3ccc4c(c3C)CCN(C[C@@H]3CCOC3)C4)cs2)CC[C@H]1C(=O)O` belongs 17 nM; to `Cc1ccc(OCc2ccc3c(c2C)CCN(C2COC2)CC3)c(-c2cccc(N3CC4C[C@]4(C(=O)O)C3)n2)c1` (stereo partly drawn), 50 nM; to `Cc1cccc(-c2csc(N3CC[C@@]4(C(=O)O)C[C@H]4C3)n2)c1OCc1ccc2c(c1)CCN(C1CCOCC1)CC2`, 10 nM. As for `Cc1cccc(-c2csc(N3CC[C@@]4(C(=O)O)C[C@H]4C3)n2)c1OCc1ccc2c(c1C)CCN(C1COC1)C2`, the figure is 17 nM; as for `Cc1ccc(OCc2ccc3c(c2C)CCN(C2CCOCC2)C3)c(-c2ccnc(N3CC[C@@]4(C(=O)O)C[C@H]4C3)n2)c1`, 12 nM; as for `Cc1cccc(-c2csc(N3CC[C@@]4(C(=O)O)C[C@H]4C3)n2)c1OCc1cnc2c(c1)CCN(C1CCOC1)C2` (stereo partly drawn), 453 nM.

In the case of `Cc1cccc(-c2csc(N3CC[C@@]4(C(=O)O)C[C@H]4C3)n2)c1OCc1ccc2c(c1C)CCN(C1CCOCC1)CC2`, the concentration for a half-maximal effect (EC50) was 2 nM. To `CO[C@@H]1CN(c2nc(-c3cc(F)cc(C)c3OCc3ccc4c(c3)[C@H](C)CN(C3CCOCC3)CC4)cs2)CC[C@@H]1C(=O)O` belongs 11 nM; to `O=C(O)[C@@]12CCN(c3nccc(-c4ccccc4OCc4ccc5c(c4)CCN(C4CCOCC4)C5)n3)C[C@@H]1C2`, 32 nM.

These data come from ChEMBL document CHEMBL3886753, “Heterocyclic carboxylic acids as activators of soluble guanylate cyclase” (2016).
